Series [1] deals with Notch reporter. Description: Notch reporter assay in MC3T3-E1 osteoblasts cocultured with JAG1 OE tumor cells. It counts as cell-based, mouse. The settings on record: 6-fold increase induced by JAG1 OE tumor cell coculture; FIG. 7A. On the procedure:
For transfection experiments, MC3T3-E1 osteoblasts were seeded at 2×10^5 cells/well in 12-well plates and grown to 95% confluence. For reporter assays, the firefly luciferase Notchreporter (Zeng et al., 2005, which is incorporated herein by reference as if fully set forth) and cytomegalovirus (CMV)-Renilla luciferase control (Promega) plasmids were transfected using Lipofectamine 2000 at concentrations designated by the manufacturer's instructions. After 4 hours, the transfection media was changed to regular media containing 1×10^5 vector control or JAG1 OE tumor cells per well and plated in triplicate in the presence of DMSO or MRK-003. Following 2 days, the coculture was lysed and subjected to a luciferase assay in which firefly counts (Notch reporter activity) was divided by renilla counts to normalize for transfection efficiency. For siRNA transfection experiments, a scrambled control siRNA or two distinct targeting siRNAs against Rbpj #1-[…] [SEQ ID NO: 6] and #2-[…] [SEQ ID NO: 7] or Hey1 #1-[…] [SEQ ID NO: 8] and #2-[…] [SEQ ID NO: 9] […] Following 6 days, the coculture was lysed and subjected to a luciferase assay to selectively quantify the number of tumor cells. For gene expression analysis, RNA from cocultures was collected in RLT lysis buffer, extracted with RNeasy mini kit (Qiagen), and subjected to quantitative RT-PCR.
A general note: In a reporter assay the amount or activity of a reporter protein is the signal.

The subject of series [2] is primary mammary tumors of MDA231 sublines. Put plainly: Orthotopic primary mammary tumor xenograft. Conditions: mouse, in vivo. On the procedure:
For bone metastsis studies, 10^5 tumor cells were injected into the left cardiac ventricle of anesthetized female athymic Ncr-nu/nu or BALB/c mice. Development of metastases was monitored by BLI. Bioluminescence images were acquired with a Xenogen IVIS 200 Imaging System. Analysis was performed with Living Image software by measuring photon flux in the hindlimbs of mice. Data were normalized to the signal on day 7. Bone metastasis-free survival curves represent the time point at which each mouse developed bone metastasis by threshold BLI signals in the hindlimbs. For the orthotopic xenograft model, mammary fat pad injections and primary tumor size measurements were performed following the procedure described previously (Minn et al., 2005, which is incorporated herein by reference as if fully set forth).
MRK-003 is a potent and specific gamma-secretase inhibitor whose biochemical, cellular and pharmacological properties have been extensively studied and reported. MRK-003 is a cyclic sulfamide with sub-nanomolar potency inhibiting gamma-secretase-mediated cleavage of Notch to its active form (NICD) (Lewis et al., 2007, which is incorporated herein by reference as if fully set forth). […] For xenograft experiments, mice were administered the vehicle (0.5% methylcellulose) or MRK-003 by oral gavage twice a week at a 100 mg/kg dosage. The dosing schedule was 2-days on, 5-days off. […]

The test system of series [3] is gamma-secretase. Conditions: Lewis et al., 2007; cited from earlier work.
The subject of series [4] is Notch. Conditions: cited from earlier work.
Series [5] concerns MC3T3-E1 osteoblasts. Description: Microarray gene expression profiling of FACS-separated MC3T3-E1 osteoblasts. It counts as cell-based, mouse. Conditions: FIG. 11B. From the text: For microarray analysis the quality of the FACS-separated MC3T3-E1 RNA samples was monitored using the 2100 bioanalyzer (Agilent) before gene expression profiling with the Agilent mouse […] microarrays. To find genes regulated by JAGGED1 and MRK-003 in osteoblasts, expression data of MC3T3-E1 under the indicated coculture and treatment conditions were generated and normalized by the array median, and probes were filtered by the expression levels. Probes with >2-fold changes in MC3T3-E1 cells cocultured with JAG1 OE tumor cells relative to vector-control tumor cells were identified as the regulated genes.

For series [6], the system named is MDA231 sublines (SCP28 tumor cells). Put plainly: Proliferation of tumor cells cultured alone. It counts as cell-based, human.
For series [7] the following is noted: LoRusso et al, AACR 2009; cited from earlier work.
Series [8] deals with JAG1 OE tumor cells bone metastasis. Description: Bone metastasis xenograft, JAG1 OE tumor cells, MRK-003 treatment. It counts as in vivo, mouse. On the procedure:
For bone metastsis studies, 10^5 tumor cells were injected into the left cardiac ventricle of anesthetized female athymic Ncr-nu/nu or BALB/c mice. Development of metastases was monitored by BLI. Bioluminescence images were acquired with a Xenogen IVIS 200 Imaging System. Analysis was performed with Living Image software by measuring photon flux in the hindlimbs of mice. Data were normalized to the signal on day 7. Bone metastasis-free survival curves represent the time point at which each mouse developed bone metastasis by threshold BLI signals in the hindlimbs. […]
Osteolysis was assessed by X-ray radiography. […] Osteolytic lesions were identified on radiographs as demarcated radiolucent lesions in the bone and quantified using the ImageJ software (National Institutes of Health).
Hindlimb bones were excised from mice at the end point of each experiment, immediately after the last BLI time point. […] For quantitative analysis of lesion area, a 5× objective was used to focus on the tumor region of interest and images were acquired using the AxioCamICc3 camera set to an exposure of 100 ms. Lesions that were larger than the field of view were quantified by acquiring multiple images to encompass the entire lesion. The “spline” function of the AxioVision software was used to outline the region of interest and subsequently quantify the lesion area. […]

As for `O=S1(=O)N[C@@]2(CN1CC(F)(F)F)[C@@H]1CC[C@H]2Cc2ccc(/C=C/CN3CCC(C(F)(F)F)CC3)cc2C1` [MRK-003], the “Notch activity (Notch reporter)” value in series [1] is listed as “abolished”. For the same molecule, in series [2], the “growth rate of primary mammary tumors” value was “not altered” and the “primary tumor xenografts of MDA231 sublines, control vs treated” value is reported as “no difference”. In addition, the “potency inhibiting gamma-secretase-mediated cleavage of Notch to NICD” value in series [3] is “sub-nanomolar”. Besides, the “efficacy with intermittent exposure in mice” value in series [4] (Tammam et al., 2009) is reported as “robust efficacy”. Moreover, in series [4] (recovery during dosing holiday), the “intestinal effect resulting from Notch inhibition” value was “transient intestinal metaplasia (goblet cell induction)”. For the same molecule, the “123 genes activated at least 3-fold in MC3T3-E1 by JAG1 OE coculture” value in series [5] is reported as “concomitantly downregulated”. Further, the “proliferative ability of tumor cells cultured alone” value in series [6] (JAG1 OE SCP28 without osteoblasts, FIGS. 9B-9C) is reported as “did not affect”. The “proliferation assays of MDA231 sublines, control vs treated” value in series [6] (relatively low concentrations sufficient to inhibit Notch in bone-specific cells) is on record as “no difference”. Moreover, in series [7], the “clinical responses with once-weekly dosing” value was “strong clinical responses” and the “tolerability of once-weekly dosing in the clinic” value was “well-tolerated”. For the same molecule, the osteolysis result in series [8] (JAG1 OE, FIG. 17D) was “reduced”. Further, the “reduction of bone metastasis in the JAG1 OE group” value in series [8] (tumor signal decreased to levels of control group, FIGS. 17B-17C) is “more than 6 fold”.

These data come from patent US20150329918A1, “JAGGED1 AS A MARKER AND THERAPEUTIC TARGET FOR BREAST CANCER BONE METASTASIS” (The Trustees of Princeton University, priority 2011, published 2015).
